Earlier results on one substance are cited in publication PMC5950987 (Journal of Diabetes Science and Technology, 2017).

The conditions of this data set: administered by needle and syringe.

Take regular human insulin: the “Intraindividual variability of the metabolic effect” value was 10-30%.
